{"source": "patent US10344037B2", "about": "“Use of the FL-one hundred eighteen core chemical structure platform to generate FL-one hundred eighteen derivatives for treatment of human disease” (priority 2014, dated 2019)", "key": {"[1]": {"test": "Cardiac measurements by ultrasound", "assay_type": "in vivo, SCID mice", "conditions": "IV 0.75 mg/kg (½MTD), q2d×4", "method": "Cardiac imaging is performed using a 55 MHz ultrasound transducer system. Calculations are made based on the Simpson's method. Three short axis images and one long axis image of the left ventricle are acquired and used to determine cardiac output, ejection fraction, and stroke volume. […] Measurements are made with a 55 MHz ultrasound probe. Step (a): cardiac output is a measurement of the total volume of blood pumped by the left ventricle per minute. Step (b) ejection fraction measures the percentage of blood that leaves the left ventricle every time it contracts. Step (c) stroke volume measures the volume of blood pumped from the left ventricle with each contraction.\nOn the other hand, we have analyzed a comprehensive panel of chemical parameters to determine the potential chemical toxicity including renal and liver toxicity using blood samples from vehicle-treated SCID mice and FL118-treated mice. The analyzed parameters include glucose (GLU), blood urea nitrogen (BUN), creatinine (CREA), inorganic phosphate (PHOS), calcium (CA), total protein (TP), albumin (ALB), alanine aminotransferase (ALT), alkaline phosphatase (ALKP), Gamma-glutamyl transferase (GGT), total bilirubin (TBIL), cholesterol (CHOL), and amylase (AMYL), lipase (LIPA)."}, "[2]": {"test_system": "HCT116 colon cancer cells", "test": "cells", "assay_type": "cell-based, human", "quoted_text": "(§1) Cancer cell viability and growth are determined by MTT assay. […] MTT is used as a colorimetric substrate for measuring cell viability and growth. When cell growth is inhibited, there is an alteration of cellular redox activity, and thus rendering cells unable to reduce the MTT dye. Cells are seeded in 96 well plates overnight and then treated with or without a compound/drug in the presence or absence of an protein molecule inhibitor (e.g. ABCG2 inhibitor ko143) for 48-72 hours, MTT is added to a final concentration 0.5 mg/ml. Cells are continuously incubated in a 5% CO2 incubator at 37° C. for 4 h with MTT and then lysed with a cell lysis buffer (20% SDS, 50% N,N-dimethylformamide, pH 4.7), 100 μl per well, for 4 h in the incubator. Subsequently, cell absorbance in each well is measured at 570 nm with an Ultra Microplate Reader (Bio-Tek Instruments). Results are reported as the mean±SD from 3-5 independent assays at each point. […] After 72 hours, media is removed and cells are harvested using 0.5 ml of 0.25% Trypsin-EDTA. Cells are counted and viability is analyzed on a Vi-CELL XR Cell Viability Analyzer (Beckman Coulter)."}, "[3]": {"test_system": "HCT-8 cells", "test": "Colony formation after 2 h or 6 h drug treatment", "assay_type": "cell-based, human", "conditions": "2 h or 6 h treatment, 2 weeks growth", "method": "Subconfluent SW620, HCT-8, and HCT-116 cells were lysed and analyzed for the expression of MDR1 and ABCG2 using western blots (WB). Actin is the internal control. […] Cell growth/viability was then analyzed by MTT assays. Each time point in the individual curve is the mean±SD from 3 to 5 independent assays. […] Drugs were then washed out and cells were allowed to grow in new medium without drugs for 2 weeks. Cell colonies were stained with crystal violet solution; images were digitally taken. Triplicate results are shown.\nCell growth is then measured and the data are plotted as percentage of growth inhibition (no drug treatment was set at 0%). […] C. […] Representative cancer cell images were taken with a digital camera under phase-contrast microscope."}, "[4]": {"test_system": "human umbilical vein endothelial cells (HUVECS)", "test": "Cell growth and viability, MTT", "assay_type": "cell-based", "conditions": "72 hours"}, "[5]": {"test_system": "HdmX, Hdm2", "test": "HdmX and Hdm2 protein and mRNA levels in HCT-8 cells", "quoted_text": "Rescue of HdmX degradation by proteasome inhibitor MG132. […] Cell lysates are then analyzed by immunoblotting of HdmX. Actin expression is used as an internal control."}, "[6]": {"test_system": "ABCC4 or ABCG2 in HCT-8 colon cancer cells", "test": "MTT assay of HCT-8 cells transfected with ABCC4 or ABCG2", "assay_type": "cell-based, human", "conditions": "72 hours", "method": "HCT-8 colon cancer cells are transfected with empty vector (pcDNA3.1), ABCC4 or ABCG2 expression vectors as shown. […] Cell growth/viability is then determined by MTT assay."}, "[7]": {"test_system": "HCT116-A2 cells", "test": "cells", "assay_type": "cell-based, human", "quoted_text": "as §1"}, "[8]": {"test_system": "colorectal cancer PDX (11124, 14528)", "test": "Colorectal cancer patient-derived xenografts (PDX)", "design": "species or system SCID mice", "conditions": "mouse, in vivo", "description": "Individual PDX were subcutaneously inoculated into SCID mice. […] Individual PDX tumor curves derived from individual mice are shown. […] Two examples of colorectal cancer PDX (11124, 14528) are shown."}, "[9]": {"test_system": "p53", "test": "Western blot for p53 expression in colon cancer cells with wild type p53", "assay_type": "cell-based, human", "quoted_text": "Actin is an internal control for total protein loading.\nAfter the lysates are cleared by centrifugation at 15,000 g for 20 minutes at 4° C., the total protein is determined using Bio-Rad protein assay solution. Up to 50 μg of total protein is denatured in 2×SDS sample loading buffer for 5 minutes at 95° C., separated on 10-15% SDS-PAGE gels, and electrotransferred to the Pure Nitrocellulose Membrane (Bio-Rad, Hercules, Calif.) using semi-dry electrophoretic transfer. After the nonspecific binding sites on the membranes are blocked with 5% skim milk in TBS-T (20 mM Tris-HCl pH 7.5, 0.137 M NaCl, and 0.01% Tween 20) for 3 hours at room temperature with constant shaking, the membranes are incubated in TBS-T containing the relevant primary antibody (1: 500-1000) and 5% BSA overnight at 4° C. After washing with TB S-T three times, the membrane is incubated in 5% skim milk in TBS-T buffer containing the appropriate secondary anti-IgG antibody (1:5000) at room temperature for 1 h with constant shaking. The protein of interest is detected using Western Lightning®-ECL (Perkin Elmer, Waltham, Mass.) and visualized by exposure for various times (5-60 seconds). […]"}, "[10]": {"test_system": "IAP and Bcl-2 family genes", "test": "Affymetrix Human Gene 1.0 ST Array of FL118-treated PC3 cells", "conditions": "DNA microarray"}, "[11]": {"test": "Pharmacokinetics after IV injection in tumor-bearing SCID mice", "assay_type": "in vivo", "method": "Then, blood and tumor tissues were collected at 10 min, 1 h, 4 h, 12 h, 24, and 48 h. Three SCID mice at each time point were used. Standard deviation (SD) was analyzed using Excel software.\nA 800 μl aliquot of ice cold acidified methanol is added to 200 μl plasma and vortexed for 15 sec. […] A 800 μl aliquot of ice cold acidified methanol is added to 200 μl homogenized tissue and then vortexed for 1 min. The samples are then centrifuged at 13,000 rpm for 5 min. and the supernatant is transferred to a clean 13×100 mm glass tube. Samples are dried under vacuum and stored at −20° C. until analysis. Dried samples were then reconstituted in 200 μl of mobile phase (80% 3% TEA and 20% acetonitrile pH 5.5) and 15 μl is injected. Analysis is carried out using an Acquity UPLC system with Fluorescence detection interfaced with Empower software. Separation is carried out on a Acquity BEH Shield RP18 1.7 μm, 2.1 mm×100 mm column (Waters). […] CPT-11 is used as the internal standard (IS); a 10 μl aliquot of a 1.3 μg/ml solution is added to each 200 μl sample. The fluorescence detector is set at the following Excitation (Ex) and Emissions (Em) wavelengths: Ex 370 nm Em 510 nm. […] To ensure quality assurance, quality control samples are prepared in plasma at 25 and 250 ng/ml aliquoted and stored at −20° C. The QC's are injected in duplicate at the beginning and end of the assay. […] Validation consists of running twelve standard curves over the course of 5 days. QC samples are analyzed with each curve."}, "[12]": {"test_system": "cancer cells", "test": "Cell growth and viability, MTT", "assay_type": "cell-based, human", "conditions": "72 hours", "method": "Actin is an internal control for equal protein loading. […] Subconfluent cancer cells as shown are treated with a series of concentrations of crolibulin as shown (0-100 μM) for 72 hours. Cell growth and viability are determined via MTT assay. Each curve is the mean±SD from 4 independent assays.\nCrolibulin is an anticancer drug that targets endothelial cells of the cancer vasculature system. Therefore, crolibulin is considered as a vascular disrupt agent (VDA)."}, "[13]": {"test_system": "ABCG2 in HCT116-A2 cells", "test": "Growth inhibition after ABCG2 shRNA silencing", "assay_type": "cell-based, human", "conditions": "72 hours", "method": "Actin is internal control. B and C. […] Cells at sub-confluence are infected with lentiviral particles containing nonsense shRNA (ns), or AGCG2-specific shRNA (sh1, sh2) to silence ABCG2 expression in the cells. […] Viability for each dose was determined using a ViCELL XR cell viability analyzer and normalized to that of DMSO control. Error bars=SEM, n=3 independent experiments. Data are plotted graphically and EC50 values are calculated using GraphPad Prism 6.0."}, "[14]": {"conditions": "IC50 of topotecan divided by IC50 of the drug"}}}
{"molecule": "CC[C@@]1(O)C(=O)OCc2c1cc1n(c2=O)Cc2cc3cc4c(cc3nc2-1)OCO4", "note": "[FL118]", "values": [{"measurement": "cardiac output, ejection fraction and stroke volume", "setting": "[1]", "value": "no difference between vehicle control and FL118-treated SCID mice"}, {"measurement": "IC50", "setting": "[2]", "value": 0.0477, "unit": "nM"}, {"measurement": "RP", "setting": "[2]; [14]", "value": 15.67}, {"measurement": "more effective to inhibit colony formation than topotecan", "setting": "[3]", "value": "> 100", "unit": "time"}, {"measurement": "sensitivity of HUVEC cells", "setting": "[4]", "value": "insensitive to FL118 treatment"}, {"measurement": "mRNA levels of HdmX and p21 (quantitative real time PCR)", "setting": "[5]; FL118 treatment for 8 h", "value": "does not significantly alter the mRNA levels of HdmX but increases the control gene p21 mRNA levels"}, {"measurement": "time to HdmX downregulation after treatment", "setting": "[5]; HCT-8 cells, 100 nM, time course", "value": "≤ 4", "unit": "h"}, {"measurement": "proteasomal degradation of HdmX and Hdm2", "setting": "[5]; HCT-8 cells, 10 and 100 nM", "value": "promotes proteasomal degradation of HdmX but not Hdm2"}, {"measurement": "effect of forced expression of ABCC4 or ABCG2 on resistance", "setting": "[6]", "value": "fails to increase FL118 resistance"}, {"measurement": "IC50", "setting": "[7]", "value": 0.163, "unit": "nM"}, {"measurement": "RP", "setting": "[7]; [14]", "value": 666.5}, {"measurement": "antitumor activity on the same PDX on different mice", "setting": "[8]", "value": "very similar antitumor activity to the same tumor on different SCID mice"}, {"measurement": "p53 protein expression", "setting": "[9]", "value": "strong and rapid induction of p53 expression"}, {"measurement": "expression of Bcl-2 family antiapoptotic genes", "setting": "[10]", "value": "slightly decreases Mcl-1 and Bcl-XL, and shows no effect on Bcl-2, Bcl2A1, Bcl-w, Bcl-B, Bcl2L12, Bcl2L13, Bcl-G and Bcl2L15"}, {"measurement": "expression of IAP family genes", "setting": "[10]", "value": "decreases (2 fold cutoff) NAIP, cIAP2, XIAP and Bruce, and shows no effects on cIAP1, Livin and hILP2"}, {"measurement": "expression of proapoptotic proteins", "setting": "[10]", "value": "increases proapoptotic proteins Bax, Bad, Bim, Hrk, and Bmf without affecting the expression of Bid, Bik, Bak and Bok"}, {"measurement": "T1/2", "setting": "[11]; FaDu tumor, iv 1.5 mg/kg", "value": 411.1, "unit": "min"}, {"measurement": "Tmax", "setting": "[11]; FaDu tumor, iv 1.5 mg/kg", "value": 10, "unit": "min"}, {"measurement": "Vz", "setting": "[11]; FaDu tumor, iv 1.5 mg/kg", "value": 33052, "unit": "g/kg"}, {"measurement": "T1/2", "setting": "[11]; SW620 tumor, iv 1.5 mg/kg", "value": 765, "unit": "min"}, {"measurement": "Tmax", "setting": "[11]; SW620 tumor, iv 1.5 mg/kg", "value": 10, "unit": "min"}, {"measurement": "Vz", "setting": "[11]; SW620 tumor, iv 1.5 mg/kg", "value": 30742, "unit": "g/kg"}, {"measurement": "time FL118 is maintained in tumor", "setting": "[11]; intravenous injection", "value": "over 48 hours"}, {"measurement": "time to clearance from blood", "setting": "[11]; intravenous injection", "value": "≤ 12", "unit": "h"}, {"measurement": "Cl", "setting": "[11]; mouse plasma, iv 1.5 mg/kg", "value": 238.12, "unit": "mL/min/kg"}, {"measurement": "Cmax", "setting": "[11]; mouse plasma, iv 1.5 mg/kg", "value": 43, "unit": "ng/mL"}, {"measurement": "T1/2", "setting": "[11]; mouse plasma, iv 1.5 mg/kg", "value": 107.3, "unit": "min"}, {"measurement": "Tmax", "setting": "[11]; mouse plasma, iv 1.5 mg/kg", "value": 10, "unit": "min"}, {"measurement": "Vz", "setting": "[11]; mouse plasma, iv 1.5 mg/kg", "value": 36.849, "unit": "L/kg"}, {"measurement": "sensitivity of cancer cells", "setting": "[12]", "value": "sensitive to FL118 treatment"}, {"measurement": "effect of silencing of ABCG2 on cell growth inhibition", "setting": "[13]", "value": "shows no effect to FL118"}]}
